In PMC12155980, “Design, Synthesis, and Biological Evaluations of a Novel Resveratrol-Type Analogue Against VEGF” (Molecules, 2025):

Key:
[1] = target: T1, VEGF165 protein (Homo sapiens, UniProt P15692); experiment: SPR binding affinity assay (Biacore T200); details: immobilized VEGF165, analytes 1 to 30 µM, estimated, read-out: dissociation constant (Kd)
T1 sequence (P15692 1-191 isoform P15692-4): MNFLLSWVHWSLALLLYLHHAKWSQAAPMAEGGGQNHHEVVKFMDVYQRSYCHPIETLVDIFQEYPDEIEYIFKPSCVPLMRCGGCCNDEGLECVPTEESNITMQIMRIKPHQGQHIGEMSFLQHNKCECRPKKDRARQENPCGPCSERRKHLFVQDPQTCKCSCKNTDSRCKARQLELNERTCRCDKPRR
Experimental: In parallel, an ultrafiltration assay was conducted in the presence and absence of VEGF protein (Figure 2A). […] Subsequently, SPR investigation was performed using Biacore T200 (Cytiva, Washington, DC, USA) to detect the binding affinities of RE-1 to the targeted protein. […] When the binding activities between analytes and the protein were detected, response units (RUs) could be calculated and obtained accordingly.
Binding affinities between analytes and VEGF protein were determined using a Biacore T200 (Cytiva, Washington, DC, USA) with a GE Series dextran-coated (CM5) sensor chip. Specifically, the HBS-T mixture (150 mM NaCl, 10 mM Hepes, 0.05% polysorbate 20, 3.4 mM EDTA, 5% DMSO, pH 7.4) was selected as the operating buffer at 25 °C. The immobilizing VEGF protein was covalently placed onto the chip at the sensor surface through amide coupling reagent—EDC/NHS {1-ethyl-3-[3-(dimethylamino) propyl]carbodiimide hydrochloride)/N-hydroxysuccinimide}. Following surface activation, the VEGF protein was dissolved using a coupling buffer (0.1 M acetate buffer, pH 4.5) and placed at the surface of the sensor chip, until the RU (resonance unit) signal of the VEGF protein was detected and reached 6500 RU. To remove unreacted VEGF protein, the chip was washed and subsequently reacted with 10 mM glycine-HCl at pH 1.5. […] Data were further analyzed utilizing GE Biacore T200 control software.

[2] = Stability test by HPLC (intra- and inter-day variability); format: physicochemical; details: for Intra-day RSD: n = 6; for Intra-day Mean Peak Area: n = 6, HPLC 210 nm; for Inter-day Mean Peak Area / Inter-day RSD: n = 6, five successive days
[3] = Caco-2 transepithelial permeability assay; format: in vitro ADME; details: human; for Papp at 0.3 µM: Caco-2, sample tested at 0.3 µM; for Papp at 3 µM: Caco-2, sample tested at 3 µM
[4] = tested on: ERK1/2; experiment: Western blot, phosphorylation of downstream ERK1/2 in HUVECs; format: cell-based, human; details: in the presence of VEGF
From the text: (§1) In light of the investigation above, we further evaluated the anti-VEGF efficacy of RE-1 in cell studies. VEGFR2 was previously identified as the main receptor of VEGF protein. […] ERK1/2, a downstream signal factor, was subsequently stimulated and phosphorylated after the activation of VEGFR2 [17].
(A) Cell treatment was the same as in Figure 3. […] Antibodies in use included: anti-rabbit phospho-p44/42 MAPK, anti-rabbit p44/42 MAPK (CST), and anti-rabbit horseradish peroxidase (HRP) secondary antibody. (B) The intensities of each band were quantified and analyzed with the software Image Lab. Values were calculated as percentage of changes compared with a blank control (only medium), in mean ± SD, n = 4. * p < 0.05; compared with the control group.
(§2) HUVECs were seeded onto 12-well plates at a density of 1.5 × 10^4 cells/mL and subjected to serum starvation with a serum-free medium overnight. After treatment with various samples, the cells were directly lysed with 200 μL 2× sodium dodecyl sulfate polyacrylamide gel electrophoresis (SDS-PAGE) lysis buffer (100 mM Tris-Cl, pH 6.8, 8% SDS, 0.2% bromophenol blue, 20% glycerol, 400 mM β-mercaptoethanol). The lysates were obtained and denatured at 85 °C for 15 min. Afterwards, the samples were subjected to SDS-PAGE in a 10% gel. […] The intensities of each band were quantified and analyzed with software Image Lab.

[5] = tested on: HUVECs; experiment: MTT cell viability (toxicity) in HUVECs; format: cell-based, human; details: cultured HUVECs, concentrations up to 100 µM
[6] = target: T2, VEGF protein (Homo sapiens, UniProt P15692); experiment: Ultrafiltration binding assay with HPLC quantification; details: ultrafiltration in presence and absence of VEGF protein
T2 sequence (P15692 1-191 isoform P15692-4): T1 sequence (P15692 1-191 isoform P15692-4)

[7] = tested on: HUVECs; experiment: Wound closure assay; format: cell-based, human; details: VEGF 10 ng/mL, 0.3 µM to 3 µM, 20 h
Experimental: (§3) VEGF has been reported as a crucial mediator in human umbilical vein endothelial cells (HUVECs).
Figure 6 RE-1 reduces VEGF-regulated wound recovery in HUVECs. […] (D) Quantification of wound recovery. Values were calculated as percentage of changes compared with the blank control (only medium), in mean ± SD, n = 4. * p < 0.05; ** p < 0.01; compared with the control group.
A wound closure assay was performed on cultured HUVECs to study cell migration in vitro. Procedures were described previously by Guo et al.. Briefly, HUVECs were seeded onto a 12-well plate at a density of 3 × 10^5 cells/well, and treatments were added when the cells grew to full confluence. The cells were washed with PBS and treated with drugs. The photos of each cell scrape at 0 (At0) and 20 h (At20) were captured with a microscope and imaging software (Zen, https://www.zeiss.com/microscopy/en/products/software/zeiss-zen.html, accessed on 19 January 2025) at a 10× magnification. The software TScratch 1.0 (CSE Lab, Zurich, Switzerland) was used to determine the open area of each scrape photo at various timepoints. Quantification of the recovery rate of wound was calculated according to the following equation: Wound closure (%) = (At0 − At20)/[…] × 100%.

[8] = tested on: VEGF/VEGFR2 complex; experiment: Western blot, phosphorylation of VEGF/VEGFR2 in HUVECs; format: cell-based, human; details: VEGF 10 ng/mL
Experimental: as §1
(A) VEGF was added at a concentration of 10 ng/mL, and avastin at 200 µg/mL was employed as the positive control. (B) The intensities of each band were quantified and analyzed with software Image Lab (6.1 version). Values were calculated as the percentage of changes compared with blank control (only medium), in mean ± SD, n = 4. * p < 0.05; compared with the control group.
as §2, with “gel. Then, 5% skim milk in Tris-buffered saline of pH 7.4 with 0.1% Tween-20 (as TBST) was used for blocking.” for “gel.”

[9] = tested on: HaCaT cells; experiment: MTT cell viability (toxicity) in HaCaT cells; format: cell-based, human; details: concentrations up to 100 µM
[10] = tested on: HUVECs; experiment: VEGF-induced cell proliferation (MTT); format: cell-based, human; details: VEGF 10 ng/mL, 48 h, 0.1-10 µM
Experimental: as §3
HUVECs were incubated in the presence of VEGF (10 ng/mL) with or without drug treatments for 48 h. […] The absorbance of the samples at 570 nm was measured using a microplate reader (Thermo Fisher Scientific, Waltham, MA, USA). * p < 0.05; ** p < 0.01; compared with the control group.
First, 5 × 10^4 cells/mL […] cells were seeded on a 96-well plate. After 24 h incubation, 100 μL VEGF at a concentration of 10 ng/mL with various concentrations of analytes were added to the mixture, followed by the addition of 10 μL of MTT solution (5 mg/mL). Th blank group was set up without any drug treatments, while avastin was utilized as a positive control. The mixture was incubated at 37 °C for 4 h before 150 μL DMSO was employed to dissolve formazan salt formed during the reaction. The sample was collected and read under a microplate reader (Thermo Fisher Scientific) at a wavelength of 570 nm. Proliferation values were calculated as follows: cell proliferation (%) = (experimental value − background value)/(blank value − background value) × 100%.

[11] = tested on: HaCaT cells; experiment: VEGF-mediated intracellular ROS formation (DCFH-DA); format: cell-based, human; details: 0.3 to 3 µM
Experimental: VEGF acts as an inducer in reactive oxygen species (ROS) formation; such an interaction plays an essential role in the activation of VEGFR2-mediated pathways and downstream cell migration.
Figure 7 RE-1 attenuates VEGF-mediated ROS formation in HaCaT cells. (A) HaCaT cells were seeded onto coverslips and mounted with Prolong Gold Antifade Reagent with DAPI. Pictures of cells were captured with confocal microscopy Leica SP8 (Leica, Germany). (B) The intensities of fluorescent signals by DCFH-DA were quantified using the software Leica Application Suite (LAS, 4.12 version) X. Values were calculated as percentage of changes compared with the blank control (only medium), in mean ± SD, n = 4. * p < 0.05; compared with the control group.
Intracellular ROS accumulation was measured with a fluorescent ROS indicator DCFH-DA. Procedures were conducted as described previously. In brief, HaCaT cells were seeded onto coverslips at a density of 1 × 10^5 cells/mL. Following drug treatments, a DCFH-DA probe diluted in serum-free medium at 20 μM was introduced to the cells. The cells were incubated with DCFH-DA for 20 min in a 37 °C incubator. PBS wash was followed to rinse off the residual DCFH-DA. Following this, the cells were fixed with 4% paraformaldehyde (PFA) in PBS for 15 min at room temperature. The PFA was washed off with a PBS wash twice. Coverslips with fixed cells were mounted with Prolong Gold Antifade Reagent with DAPI (Cell Signalling Technology, Boston, MA, USA). Pictures of cells were captured with confocal microscopy Leica SP8 system at 20× magnification (Leica, Wetzlar, Germany). The intensities of fluorescent signals by DCFH-DA were determined through the software Leica Application Suite (LAS) X (Leica Microsystems, Wetzlar, Germany).

Row | Molecule | Kd [1] [µM] | Papp at 0.3 µM [3] [×10⁻⁶ cm/s] | Papp at 3 µM [3] [×10⁻⁶ cm/s] | inhibition of ERK1/2 phosphorylation [4] | toxicity (apoptosis) in MTT assay [5] | inhibition of VEGF-regulated wound closure [7] | disruption of phosphorylation of VEGF/VEGFR2 [8] | toxicity (apoptosis) in MTT assay [9] | inhibition of VEGF-regulated cell proliferation [10] | inhibition of VEGF-mediated ROS formation [11] | also measured
1 | COc1cc(/C=C/c2ccc(OCCCn3c4c(c5cc(Br)ccc53)CCCC4n3cccc3)cc2)cc(OC)c1 (centres unmarked) [RE-1] | ~8 | 15.8 | 20.9 | found to block ERK1/2 phosphorylation | no significant apoptosis | higher efficacy than resveratrol | able to disrupt the phosphorylation and binding activity of VEGF/VEGFR2 complex | no significant apoptosis | significant inhibitory activity | better inhibitory performances than resveratrol | Intra-day RSD ([2]; acidic solution): 5.84%; Intra-day Mean Peak Area ([2]; acidic solution): 1316.9; Inter-day Mean Peak Area ([2]; acidic solution): 1403.9; Inter-day RSD ([2]; acidic solution): 8.83%; Intra-day RSD ([2]; basic solution): 5.81%; Intra-day Mean Peak Area ([2]; basic solution): 755.8; Inter-day Mean Peak Area ([2]; basic solution): 747.2; Inter-day RSD ([2]; basic solution): 9.35%; Intra-day RSD ([2]; neutral solution): 4.93%; Intra-day Mean Peak Area ([2]; neutral solution): 1002.8; Inter-day Mean Peak Area ([2]; neutral solution): 1046.6; Inter-day RSD ([2]; neutral solution): 9.21%; Papp ([3]; Caco-2, concentrations from 0.3 µM to 3 µM): 15.8 to 20.9 ×10⁻⁶ cm/s; binding degree to the protein [6]: ~ 32%
2 | Oc1ccc(/C=C/c2cc(O)cc(O)c2)cc1 [resveratrol] | ~12 | 15.1 | 18.2 | found to block ERK1/2 phosphorylation | mild apoptosis at relatively high concentrations | significant inhibitions to wound closure | able to disrupt the phosphorylation and binding activity of VEGF/VEGFR2 complex | mild apoptosis at relatively high concentrations | decent inhibition | inhibitory effectiveness | –
3 | avastin: avastin (bevacizumab), positive control against VEGF | – | – | – | – | – | – | – | – | – | able to reduce such an induction | –
